Data published in patent publication US20100189797A1, “ORAL ANTIDEPRESSANT FORMULATION” (priority 2002, published 2010).

What was measured:
stressed rats = assay: Tests made on rats: activity level of stressed rats; format: in vivo; details: 5 mg fluoxetine per kg and/or 50 mg ASA per kg, unstressed control 30, stressed 2
Procedure: Four groups of rats have been stressed. One group of rats remain unstressed so as to serve as control.
After being stressed, the rats of the first group received a dose of 50 mg ASA per kg. The second group of rats received no treatment. The third group of rats received 5 mg fluoxetine per kg, and the fourth group of rats received simultaneously 5 mg fluoxetine+50 mg ASA per kg.
The treatment was continued during 3 weeks.
In said test, the doses of ASA and fluoxetine have been adapted for rats.

volunteers = assay: Informal tests on volunteers: oral ASA dose with oral antidepressant; format: in vivo, human; details: oral ASA less than 50 mg with an antidepressant
Procedure: From said tests and informal tests made on volunteers, in which after (just after, less than 5 minutes after) and prior oral administration of an antidepressant, a dose of ASA was orally administered, it appears that the oral dose of ASA had to be lowered to less than 50 mg, especially between 5 and 50 mg.
From this test, it seems that the antidepressant action could already be achieved in less than 7 days, and even in less than 3 to 4 days, although when not using low dose of ASA, the antidepressant action is for example of at least 4 weeks for SSRI.

SSRI responding human = assay: Higher dose of ASA administered to SSRI responding human; format: in vivo; details: ASA dose of 100 mg

bleeding (volunteers)	SMILES	activity after 1 week of treatment (stressed rats)	activity after three weeks of treatment (stressed rats)	influence on the time of onset of antidepressant action (SSRI responding human)
–	CNCCC(Oc1ccc(C(F)(F)F)cc1)c1ccccc1 (racemic) [fluoxetine, (±)-N-methyl-3-phenyl-3-[(α-α-α-trifluoro-p-tolyl)oxy] propylamine]	no increase at all of the activity	about 25	–
no bleeding was observed	CC(=O)Oc1ccccc1C(=O)O [ASA, acetyl salicylic acid]	no increase at all of the activity	no improvement of activity	no influence or even to have a negative influence
